# Reference: patent publication US20060009478A1, “Methods for the treatment of back pain” (priority 2003, published 2006)
# System: patients with moderate to severe chronic low back pain
# Experiment: Pain intensity (daily diary, 11-point numerical scale), low back pain study with titration and 12-week fixed-dose period
# Format: in vivo, human
# Settings: LOCF, ITT
# Procedure: A multicenter, randomized, double-blind, active- and placebo-controlled study was designed and conducted.
# In addition, adverse events and opioid-related adverse events were to be recorded in the daily diary.
# For the pain intensity (PI) scale assessment, the patient was prompted with the question “How would you rate your overall pain intensity at this time?” and the PI score was recorded in the clinic at the Screening and Baseline Visits. Pain intensity was also assessed by prompting the patient with the questions “How would you rate your overall pain intensity during the past 24 hours?” and a daily PI diary score was recorded at bedtime. For both Pain Intensity prompts, the response was scored on an 11-point numerical scale (0=no pain and 10=severe pain).
# The baseline average daily pain intensity score for each patient was calculated as the average of the daily bedtime pain intensity scores recorded during the 3 days immediately prior to baseline/start of titration period visit. The post-baseline average daily pain intensity scores were calculated as the average of the daily bedtime pain intensity scores recorded during the last 3 days of dosing prior to each visit. Missing data was imputed using the last-observation-carried-forward (LOCF) approach for efficacy variables in the fixed-dose period. If the first visit in the fixed-dose period was missing, the last value in the titration period was imputed forward. Unless indicated, all testing of statistical significance was two-sided, and a difference resulting in a p-value of equal to or less than 0.05 was considered statistically significant.
# A primary efficacy endpoint was the percent change from baseline to the end of the fixed-dose period (Week 12) in average daily pain intensity. The percent change from baseline was calculated as [PI(baseline)−PI(fixed-dose)]/PI(baseline)*100. Data was summarized descriptively by treatment group. An analysis of covariance (ANCOVA) model including treatment and center as effects and baseline pain intensity as the covariate was used for global and pairwise inferences. Separate models were used to evaluate both the treatment by center and treatment by baseline pain intensity interaction terms.
# A primary comparison of interest was oxycodone and naltrexone (e.g., BID or QID) versus oxycodone (e.g., QID). Secondary analyses included actual and percent change from baseline values of daily pain index, SF-12, and Oswestry disability index summarized descriptively by treatment group for both the titration and fixed-dose periods. Treatments were compared globally and in pairwise fashion at each visit in the fixed-dose period using an ANCOVA model that included treatment and center as effects and baseline pain intensity as the covariate. Separate models were used to evaluate both the treatment by center and treatment by baseline pain intensity interaction terms.
smiles,measurement,setting,value
"COc1ccc2c3c1O[C@H]1C(=O)CC[C@@]4(O)[C@@H](C2)N(C)CC[C@]314 [OXY QID, oxycodone]","Pain intensity actual value at fixed dose week 7, maximum",fixed dose week 7,10.0
same,"Pain intensity actual value at fixed dose week 7, mean (SD)",fixed dose week 7,4.0 (2.54)
same,"Pain intensity actual value at fixed dose week 7, median",fixed dose week 7,3.3
same,"Pain intensity actual value at fixed dose week 7, minimum",fixed dose week 7,0.0
same,"Pain intensity change from baseline to fixed dose week 7, maximum",fixed dose week 7,3.0
same,"Pain intensity change from baseline to fixed dose week 7, mean (SD)",fixed dose week 7,−3.6 (2.69)
same,"Pain intensity change from baseline to fixed dose week 7, median",fixed dose week 7,−4.0
same,"Pain intensity change from baseline to fixed dose week 7, minimum",fixed dose week 7,−9.7
same,"Pain intensity percent change from baseline to fixed dose week 7, maximum",fixed dose week 7,42.9%
same,"Pain intensity percent change from baseline to fixed dose week 7, mean (SD)",fixed dose week 7,−46.8 (34.05) %
same,"Pain intensity percent change from baseline to fixed dose week 7, median",fixed dose week 7,−52.9%
same,"Pain intensity percent change from baseline to fixed dose week 7, minimum",fixed dose week 7,−100.0%
same,"Pain intensity actual value at fixed dose week 8, maximum",fixed dose week 8,10.0
same,"Pain intensity actual value at fixed dose week 8, mean (SD)",fixed dose week 8,4.0 (2.57)
same,"Pain intensity actual value at fixed dose week 8, median",fixed dose week 8,3.3
same,"Pain intensity actual value at fixed dose week 8, minimum",fixed dose week 8,0.0
same,"Pain intensity change from baseline to fixed dose week 8, maximum",fixed dose week 8,3.0
same,"Pain intensity change from baseline to fixed dose week 8, mean (SD)",fixed dose week 8,−3.6 (2.67)
same,"Pain intensity change from baseline to fixed dose week 8, median",fixed dose week 8,−3.7
same,"Pain intensity change from baseline to fixed dose week 8, minimum",fixed dose week 8,−9.7
same,"Pain intensity percent change from baseline to fixed dose week 8, maximum",fixed dose week 8,42.9%
same,"Pain intensity percent change from baseline to fixed dose week 8, mean (SD)",fixed dose week 8,−46.5 (34.05) %
same,"Pain intensity percent change from baseline to fixed dose week 8, median",fixed dose week 8,−52.4%
same,"Pain intensity percent change from baseline to fixed dose week 8, minimum",fixed dose week 8,−100.0%
same,"Pain intensity actual value at fixed dose week 9, maximum",fixed dose week 9,10.0
same,"Pain intensity actual value at fixed dose week 9, mean (SD)",fixed dose week 9,3.9 (2.57)
same,"Pain intensity actual value at fixed dose week 9, median",fixed dose week 9,3.3
same,"Pain intensity actual value at fixed dose week 9, minimum",fixed dose week 9,0.0
same,"Pain intensity change from baseline to fixed dose week 9, maximum",fixed dose week 9,3.0
same,"Pain intensity change from baseline to fixed dose week 9, mean (SD)",fixed dose week 9,−3.6 (2.70)
same,"Pain intensity change from baseline to fixed dose week 9, median",fixed dose week 9,−4.0
same,"Pain intensity change from baseline to fixed dose week 9, minimum",fixed dose week 9,−9.7
same,"Pain intensity percent change from baseline to fixed dose week 9, maximum",fixed dose week 9,42.9%
same,"Pain intensity percent change from baseline to fixed dose week 9, mean (SD)",fixed dose week 9,−47.4 (34.17) %
same,"Pain intensity percent change from baseline to fixed dose week 9, median",fixed dose week 9,−53.3%
same,"Pain intensity percent change from baseline to fixed dose week 9, minimum",fixed dose week 9,−100.0%
same,"Pain intensity actual value at fixed dose week 10, maximum",fixed dose week 10,10.0
same,"Pain intensity actual value at fixed dose week 10, mean (SD)",fixed dose week 10,4.0 (2.54)
same,"Pain intensity actual value at fixed dose week 10, median",fixed dose week 10,3.7
same,"Pain intensity actual value at fixed dose week 10, minimum",fixed dose week 10,0.0
same,"Pain intensity change from baseline to fixed dose week 10, maximum",fixed dose week 10,3.0
same,"Pain intensity change from baseline to fixed dose week 10, mean (SD)",fixed dose week 10,−3.6 (2.66)
same,"Pain intensity change from baseline to fixed dose week 10, median",fixed dose week 10,−3.7
same,"Pain intensity change from baseline to fixed dose week 10, minimum",fixed dose week 10,−9.7
same,"Pain intensity percent change from baseline to fixed dose week 10, maximum",fixed dose week 10,42.9%
same,"Pain intensity percent change from baseline to fixed dose week 10, mean (SD)",fixed dose week 10,−46.8 (33.72) %
same,"Pain intensity percent change from baseline to fixed dose week 10, median",fixed dose week 10,−52.0%
same,"Pain intensity percent change from baseline to fixed dose week 10, minimum",fixed dose week 10,−100.0%
same,"Pain intensity actual value at fixed dose week 11, maximum",fixed dose week 11,10.0
same,"Pain intensity actual value at fixed dose week 11, mean (SD)",fixed dose week 11,3.9 (2.57)
same,"Pain intensity actual value at fixed dose week 11, median",fixed dose week 11,3.3
same,"Pain intensity actual value at fixed dose week 11, minimum",fixed dose week 11,0.0
same,"Pain intensity change from baseline to fixed dose week 11, maximum",fixed dose week 11,3.0
same,"Pain intensity change from baseline to fixed dose week 11, mean (SD)",fixed dose week 11,−3.7 (2.70)
same,"Pain intensity change from baseline to fixed dose week 11, median",fixed dose week 11,−4.0
same,"Pain intensity change from baseline to fixed dose week 11, minimum",fixed dose week 11,−9.7
same,"Pain intensity percent change from baseline to fixed dose week 11, maximum",fixed dose week 11,42.9%
same,"Pain intensity percent change from baseline to fixed dose week 11, mean (SD)",fixed dose week 11,−48.2 (34.19) %
same,"Pain intensity percent change from baseline to fixed dose week 11, median",fixed dose week 11,−55.6%
same,"Pain intensity percent change from baseline to fixed dose week 11, minimum",fixed dose week 11,−100.0%
same,"Pain intensity actual value at fixed dose week 12, maximum",fixed dose week 12,10.0
same,"Pain intensity actual value at fixed dose week 12, mean (SD)",fixed dose week 12,4.0 (2.53)
same,"Pain intensity actual value at fixed dose week 12, median",fixed dose week 12,3.7
same,"Pain intensity actual value at fixed dose week 12, minimum",fixed dose week 12,0.0
same,"Pain intensity change from baseline to fixed dose week 12, maximum",fixed dose week 12,3.0
same,"Pain intensity change from baseline to fixed dose week 12, mean (SD)",fixed dose week 12,−3.5 (2.65)
same,"Pain intensity change from baseline to fixed dose week 12, median",fixed dose week 12,−3.7
same,"Pain intensity change from baseline to fixed dose week 12, minimum",fixed dose week 12,−9.7
same,"Pain intensity percent change from baseline to fixed dose week 12, maximum",fixed dose week 12,42.9%
same,"Pain intensity percent change from baseline to fixed dose week 12, mean (SD)",fixed dose week 12,−46.2 (33.60) %
same,"Pain intensity percent change from baseline to fixed dose week 12, median",fixed dose week 12,−52.0%
same,"Pain intensity percent change from baseline to fixed dose week 12, minimum",fixed dose week 12,−100.0%
